Source: US9371353B2, “Oligonucleotide with protected base” (Ajinomoto Co., Inc., priority 2012, dated 2016)

Assay: Solubility test of nucleoside with protected 3′-hydroxyl group
Assay type: physicochemical
Description: The solubility (=solute/(solvent+solute)×100) (mass %) at 20° C., shown in the following Table 2, of the compound representing the present invention, thymidine wherein the 5′-hydroxyl group is protected by dimethoxytrityl group, and the 3′-hydroxyl group is protected by the branched chain-containing aromatic protecting group (Example 2), and thymidine wherein the 5′-hydroxyl group is protected by dimethoxytrityl group, and the 3′-hydroxyl group is protected by the corresponding group containing the straight chain structure (Comparative Example 2) as a comparison target thereof was measured.
[Solubility Measurement Method]
• 1) A solute (100 parts by mass) was added to a solvent (100 parts by mass) to saturation at 20° C. • 2) When the solute remained by visual observation, the supernatant was quantitatively analyzed under the following HPLC conditions, and the concentration was determined and taken as the solubility (=solute/(solvent+solute)×100)(mass %). • 3) When the solute was absent by visual observation, the solubility was >50 mass %. • [HPLC Analysis Conditions] • use instrument: Hitachi high performance liquid chromatography LaChrom Elite L-2000 series • column: YMC-PACK 5 μm 150×4.6 mm • column temperature: 40° C. • eluent: THF/CH3CN/H2O • flow rate: 1.0 ml/min

[1] = heptane/toluene/acetonitrile = 1/1/1, 20° C.

solubility (=solute/(solvent+solute)×100) (heptane, 20° C.)	solubility (=solute/(solvent+solute)×100) (heptane/toluene = 1/1, 20° C.)	solubility (=solute/(solvent+solute)×100) [1]	Structure (SMILES)
0% by mass	22.3% by mass	13.7% by mass	CCCCCCCCCCCCCCCCCCOc1cc(CNC(=O)CCC(=O)OC2CC(n3cc(C)c(=O)[nH]c3=O)OC2COC(c2ccccc2)(c2ccc(OC)cc2)c2ccc(OC)cc2)cc(OCCCCCCCCCCCCCCCCCC)c1OCCCCCCCCCCCCCCCCCC (stereo not drawn) [Comparative Example 2, 5′-O-(4,4′-dimethoxytrityl)-2′-deoxythymidin-3′-yl-N-(3,4,5-tris(octadecyloxy)benzyl)succinamate]
>50% by mass	>50% by mass	>50% by mass	COc1ccc(C(OCC2OC(n3cc(C)c(=O)[nH]c3=O)C[C@H]2OC(=O)CCC(=O)NCc2cc(OCCC(C)CCCC(C)CCCC(C)CCCC(C)C)c(OCCC(C)CCCC(C)CCCC(C)CCCC(C)C)c(OCCC(C)CCCC(C)CCCC(C)CCCC(C)C)c2)(c2ccccc2)c2ccc(OC)cc2)cc1 (stereo partly drawn) [Example 2, 5′-O-(4,4′-dimethoxytrityl)-2′-deoxythymidin-3′-yl-N-[3,4,5-tris(3,7,11,15-tetramethyl-1-hexadecanyloxy)benzyl]succinamate]
